This note sets out measurements from US20090042208A1, “Assays for erectile and bladder dysfunction and vascular health” (priority 2007, published 2009).

Marks after values point to notes of the source that are not given here. Ends that are not written are not given here.

The test system of data set [1] is retired breeder rats. As to the kind of experiment: Longest visually observed erection and ICP/BP after tadalafil, pVAX-hSlo or both. The format is in vivo, rat. The following applies: tadalafil 2.5 mg/kg orally 2 h before; pVAX-hSlo 1000 μg intracorporal 1 month before. As for the experimental part:
(§1) In a second set of animals (retired breeder, male Sprague Dawley rats) in which the effect of tadalafil was to be measured alone or in combination with pVAX-hSlo, 1000 μg pVAX-hSlo was administered to 10 animals 1 month prior to determination of erectile function and gene expression. Five of these animals were treated with 2.5 mg/kg of tadalafil orally two hours prior to ICP/BP measurement. A third group of five animals were untreated controls, and the fourth group of five animals treated with 2.5 mg/kg of tadalafil orally. two hours prior to ICP/BP measurement.
ICP/BP measurement. ICP/BP was measured essentially as previously described (Christ et al. 1998; Melman et al. 2003). Briefly, animals were anesthetized by intraperitoneal injection of pentobarbital sodium (35 mg/kg). An incision was made in the perineum, and the corpus cavernosum exposed. The cavernous nerves were identified adjacent to the prostate gland. Direct electrostimulation of a cavernous nerve was performed with a delicate stainless steel bipolar hook electrode attached to the multi-jointed clamp. […] Prior to electrostimulation the longest visually observed erection was measured. […] The changes in ICP and systemic BP were recorded at each level of neurostimulation. The mean ICP/BP, standard deviation, and analysis of variance were calculated for each of the treatment groups.

Data set [2] deals with Vcsa1 and Slo transcripts in corporal tissue. The data set can be described thus: Quantitative RT-PCR of Vcsa1 and Slo transcripts in corpora after tadalafil, pVAX-hSlo or both. The following applies: tadalafil 2.5 mg/kg orally 2 h before; pVAX-hSlo 1000 μg 1 month before; or both. The format is in vivo, rat. On the procedure:
as §1
RNA Isolation from corporal tissue. Following the ICP/BP measurement, animals were euthanized and corporal tissues isolated and flash frozen in liquid nitrogen. […]
Measurement of gene expression by quantitative RT-PCR. RNA extracted either from corporal tissue or transfected corporal smooth muscle cells was used to analyze gene expression by quantitative RT-PCR. […] Real-time quantitative PCR analysis was performed using the 7300 real-time PCR system (Applied Biosystems, Foster City, Calif.).
The PCR reactions for all samples were performed in 96-well plates, with 2 μl cDNA, 100 nM each primer, and 12.5 μl of Sybr Green in a 25-μl reaction volume. […] The relative quantified value for each target gene in corpora of treated rats is expressed as 2^−(Ct−Cc) (Ct and Cc are the mean threshold cycle differences after normalizing to RPL24). […]

The test system of data set [3] is isolated corporal smooth muscle tissue. The data set can be described thus: Contractility (relaxation rate) of isolated corporal smooth muscle strips. The arrangement: species or system rat. As for the experimental part: Studies of contractility of isolated smooth muscle tissue were carried out as described previously (Chang et al. 2003, Spektor et al. 2002). Four longitudinal strips of cavernous tissue from the crura of old animals (n=4) were dissected free from the tunica albuginea and were suspended between two small surgical hooks in a tension-measuring device (Multimyograph Model 610M, Copenhagen, Denmark) that allows simultaneous monitoring of four muscle strips. Tissue was equilibrated for 90 min in 6 ml Krebs-Henseleit buffer composed of 110 mM NaCl, 4.8 mM. KCl, 2.5 mM CaCl2, 1.2 mM MgSO4, 1.2 mM KH2PO4, 25 mM NaHCO3, 11 mM glucose, and dextrose in glass-distilled water. Organ chambers were maintained at 37° C. and continuously bubbled with 95% O2 and 5% CO2 to maintain a mean pH of 7.4±0.1. Continuous recording of tension developed by the muscle strips was carried out using Powerlab software (Chart version 4.2.4, ADinstruments, CO) on a dedicated computer. Strips of corpus cavernosum first were precontracted with phenylephrine (10^−6 M). Then, relaxation was induced using CNP (10^−6 M). […] Results from four separate strips from four animals were averaged and the significance determined by the Student's t test.

The subject of data set [4] is retired breeder male Sprague-Dawley rats. The data set can be described thus: ICP/BP and blood pressure after intracorporal injection of sialorphin. The following applies: 10 and 100 μg intracorporal. The format is in vivo, rat. As for the experimental part:
Experiments were carried out on 9- to 10-month-old retired breeder male Sprague-Dawley rats weighing more than 500 g (as described in Melman et al. 2005). When measurements were complete, animals were killed by placement within a CO2 gas chamber. All protocols were approved by the Animal Use Committee and Internal Review board at the Albert Einstein College of Medicine.
The sialorphin peptide (2 mg) was dissolved in 0.5 ml of 0.01 N acetic acid and then was vortexed, and the solution was centrifuged for a few seconds at approximately 1000 g and 4° C. (to gather all the liquid at the bottom of the tube). The stock solution was stored in 25-μl aliquots (100 μg) at −70° C. Before use, the stock was thawed on ice, and phosphate buffered saline (pH 7.4) was added to bring the volume to 150 μl.
Intracorporal microinjection of sialorphin into rat corporal tissue was modified from previously described procedures, where plasmids were injected intracorporeally to investigate their effect on the ICP/BP ratio (Christ et al. 1998, 2004; Melman et al. 2005). […] The changes in ICP and systemic BP were recorded at both levels of neurostimulation. […] Mean ICP/BP (n=7) and standard deviation were calculated before and after treatment. Significant change in the ICP/BP value from that of the pretreatment group was determined by Student's t test.

As to `CN1CC(=O)N2[C@H](c3ccc4c(c3)OCO4)c3[nH]c4ccccc4c3C[C@@H]2C1=O` [tadalafil], in data set [1], the “Longest erection time, difference to untreated control groups” value is listed as “about 100 seconds” and the “Longest measured erection time” value is reported as “approximately 210 seconds”. Besides, the “Vcsa1 expression increase versus untreated animals” value in data set [2] is given as “approximately 4 fold”.

For C-type natriuretic peptide [CNP], in data set [3] (1 μM CNP, versus carrier), the “Increase in the relaxation rate of the tissue” value is on record as 67%. Besides, the “Rate of Tension Loss” value in data set [3] (strips precontracted with 1 μM phenylephrine, 1 μM CNP and/or 1 μg/ml sialorphin) is listed as 0.087* g/min.

For the compound QHNPR [sialorphin, QHNPR], the “Effect on systemic blood pressure” value in data set [4] is “no effect”.
